Columns and labels:
Format in all cases: in vivo
[1] = system: bedbugs, Cimex lectularius; assay: Insect repellent bioassay, bedbugs (treated tile arena); settings: 20% concentration, TIME 10 mins
Experimental: (§1) A laboratory bioassay was conducted to screen 5 compounds (Icaridin (38); and 4 icaridin analogues: 39, 40a, 42a and 41) for repellent activity against houseflies, Musca domestica, black ants, Lasius niger, German cockroaches, Blattella germanica, and bedbugs, Cimex lectularius. Compounds were diluted in a mixture of ethanol and water and assessed at a 20% concentration. A mixture of ethanol/water only negative control was also included for comparative purposes. These were applied onto an aluminium foil tile, which was placed into one half of an arena. The other half of the arena contained an untreated aluminium foil tile. The number of insects present in the treated and untreated area was assessed every 5 minutes for a total of 20 minutes.
Bedbugs, Cimex lectularius, were obtained from a laboratory culture maintained at CimexStore (Chepstow, UK). Mixed age and sex adult bedbugs were used in the experiments (see deviation below).
(§2) Temperature was maintained between 24.2 and 24.6° C. and relative humidity ranged between 27.5% and 43.5%, throughout the experimental period.
(§3) The tested compounds were diluted in ethanol and water to a concentration of 20% (w/w: compound 20%, ethanol 40%, water 40%). The concentrates were prepared at room temperature and stirred for approximately 15 minutes using a vortex mixer. A negative control (mixture of ethanol:water 50:50) was also included in the testing for comparative purposes. Treatments were applied directly on to a non porous surface (aluminium foil), using a Gilson pipette at a rate of 0.225 ml per 225 cm^2 surface tile. A small piece of acetate was used to evenly spread the treatments across the entire surface of the tile.
(§4) For the testing against ants, cockroaches and bedbugs: A clear plastic container was used measuring approximately 34 cm long×21 cm wide×20 cm high. This was divided into two halves. The treated aluminium foil was placed in one half and the other half contained untreated foil. Food (sugar cube for black ants and bran pellet for cockroaches) and water (damp cotton wool) were placed in each half where appropriate. Twenty ants/cockroaches and ten bedbugs were placed in the centre of the arena. The number of insects in each half was assessed at 5 minute intervals for a total of 20 minutes.
(§5) Three to six replicates were performed for each treatment, for each species.

[2] = system: German cockroaches, Blattella germanica; assay: Insect repellent bioassay, German cockroaches (treated tile arena); settings: 20% concentration
Experimental: as §1
(§6) Houseflies, Musca domestica, and German cockroaches, Blattella germanica, were obtained from a laboratory culture maintained at i2LResearch. Mixed sex and age adult insects (flies were aged 3-6 days old) were used in the experiments.
as §2, §3, §4, §5

[3] = system: black ants, Lasius niger; assay: Insect repellent bioassay, black ants (treated tile arena); settings: 20% concentration
Experimental: as §1
Black ants, Lasius niger, were field collected from the Cardiff area. Mixed age worker ants were used in the experiments.
as §2, §3, §4, §5

[4] = system: houseflies, Musca domestica; assay: Insect repellent bioassay, houseflies (treated tile arena); settings: 20% concentration
Experimental: as §1, §6, §2, §3
For the testing against houseflies: A clear plastic container was used measuring approximately 34 cm long×21 cm wide×20 cm high, with a piece of netting and lid on top. This was divided into two halves using an additional tile with a small slit measuring approximately 2.5 cm×5 cm cut at a height of […] from the base, so that the insects could freely travel between halves. A treated and untreated tile was placed either side of the dividing panel. Twenty flies were placed in the half with the treated surface. Sugar and water was placed in both halves. The number of insects crossing from the treated area into the untreated area was assessed at 5 minute intervals for a total of 20 minutes.
as §5

[5] = system: barley; assay: Herbicidal bioassay, barley (% necrosis)
Summary of the method: (§7)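 Lolium perenne, barley, peas and Chinese cabbage at 2-4 true leaf stage sprayed simultaneously with a Potter tower, compounds in DMSO at six concentrations (0.05% to 0.0001%). Phytotoxicity scored as % necrosis per EPPO PP1/135 at set intervals; five replicates per treatment and species; DMSO and water controls.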

[6] = system: peas; assay: Herbicidal bioassay, peas (% necrosis)
Summary of the method: as §7

## CCC(C)OC(=O)N1CCCCC1C/C=N/O (stereo not shown) [Compound 40a]
[1]
  insects on the treated tile: A (10% or less of the insects were on the treated tile)
[2]; TIME 5 mins
  insects on the treated tile: C (greater than 25% were on the treated tile)
[2]; TIME 10 mins
  insects on the treated tile: B (between 11% and 25% were on the treated tile)
[2]; TIME 15 mins
  insects on the treated tile: B (between 11% and 25% were on the treated tile)
[2]; TIME 20 mins
  insects on the treated tile: B (between 11% and 25% were on the treated tile)
[3]; TIME 5 mins
  insects on the treated tile: C (greater than 25% were on the treated tile)
[3]; TIME 10 mins
  insects on the treated tile: C (greater than 25% were on the treated tile)
[3]; TIME 15 mins
  insects on the treated tile: C (greater than 25% were on the treated tile)
[3]; TIME 20 mins
  insects on the treated tile: C (greater than 25% were on the treated tile)
[4]; TIME 5 mins
  insects moving towards the treated tile: B (between 11% and 25% were on the treated tile)
[4]; TIME 10 mins
  insects moving towards the treated tile: B (between 11% and 25% were on the treated tile)
[4]; TIME 15 mins
  insects moving towards the treated tile: B (between 11% and 25% were on the treated tile)
[4]; TIME 20 mins
  insects moving towards the treated tile: B (between 11% and 25% were on the treated tile)

## COC(=O)c1ccc(CNS(C)(=O)=O)cc1S(=O)(=O)NC(=O)Nc1nc(OC)cc(OC)n1 [Mesosulfuron (6), Mesosulfuron methyl ester, reference compound]
[5]; Dose 0.000001, Day 0
  Sum of % necrosis in barley: C (less than 50% necrosis)
[5]; Dose 0.000001, Day 1
  Sum of % necrosis in barley: C (less than 50% necrosis)
[5]; Dose 0.000001, Day 3
  Sum of % necrosis in barley: C (less than 50% necrosis)
[5]; Dose 0.000001, Day 7
  Sum of % necrosis in barley: C (less than 50% necrosis)
[5]; Dose 0.000001, Day 10
  Sum of % necrosis in barley: C (less than 50% necrosis)
[5]; Dose 0.000001, Day 14
  Sum of % necrosis in barley: C (less than 50% necrosis)
[5]; Dose 0.000005, Day 0
  Sum of % necrosis in barley: C (less than 50% necrosis)
[5]; Dose 0.000005, Day 1
  Sum of % necrosis in barley: C (less than 50% necrosis)
[5]; Dose 0.000005, Day 3
  Sum of % necrosis in barley: C (less than 50% necrosis)
[5]; Dose 0.000005, Day 7
  Sum of % necrosis in barley: C (less than 50% necrosis)
[5]; Dose 0.000005, Day 10
  Sum of % necrosis in barley: C (less than 50% necrosis)
[5]; Dose 0.000005, Day 14
  Sum of % necrosis in barley: C (less than 50% necrosis)
[5]; Dose 0.00001, Day 0
  Sum of % necrosis in barley: C (less than 50% necrosis)
[5]; Dose 0.00001, Day 1
  Sum of % necrosis in barley: C (less than 50% necrosis)
[5]; Dose 0.00001, Day 3
  Sum of % necrosis in barley: C (less than 50% necrosis)
[5]; Dose 0.00001, Day 7
  Sum of % necrosis in barley: C (less than 50% necrosis)
[5]; Dose 0.00001, Day 10
  Sum of % necrosis in barley: C (less than 50% necrosis)
[5]; Dose 0.00001, Day 14
  Sum of % necrosis in barley: C (less than 50% necrosis)
[5]; Dose 0.00005, Day 0
  Sum of % necrosis in barley: C (less than 50% necrosis)
[5]; Dose 0.00005, Day 1
  Sum of % necrosis in barley: C (less than 50% necrosis)
[5]; Dose 0.00005, Day 3
  Sum of % necrosis in barley: C (less than 50% necrosis)
[5]; Dose 0.00005, Day 7
  Sum of % necrosis in barley: C (less than 50% necrosis)
[5]; Dose 0.00005, Day 10
  Sum of % necrosis in barley: C (less than 50% necrosis)
[5]; Dose 0.00005, Day 14
  Sum of % necrosis in barley: C (less than 50% necrosis)
[5]; Dose 0.0001, Day 0
  Sum of % necrosis in barley: C (less than 50% necrosis)
[5]; Dose 0.0001, Day 1
  Sum of % necrosis in barley: C (less than 50% necrosis)
[5]; Dose 0.0001, Day 3
  Sum of % necrosis in barley: C (less than 50% necrosis)
[5]; Dose 0.0001, Day 7
  Sum of % necrosis in barley: C (less than 50% necrosis)
[5]; Dose 0.0001, Day 10
  Sum of % necrosis in barley: B (50%-80% necrosis)
[5]; Dose 0.0001, Day 14
  Sum of % necrosis in barley: B (50%-80% necrosis)
[5]; Dose 0.0005, Day 0
  Sum of % necrosis in barley: C (less than 50% necrosis)
[5]; Dose 0.0005, Day 1
  Sum of % necrosis in barley: C (less than 50% necrosis)
[5]; Dose 0.0005, Day 3
  Sum of % necrosis in barley: C (less than 50% necrosis)
[5]; Dose 0.0005, Day 7
  Sum of % necrosis in barley: C (less than 50% necrosis)
[5]; Dose 0.0005, Day 10
  Sum of % necrosis in barley: B (50%-80% necrosis)
[5]; Dose 0.0005, Day 14
  Sum of % necrosis in barley: B (50%-80% necrosis)
[6]; Dose 0.000001, Day 0
  Sum of % necrosis in Pea: C (less than 50% necrosis)
[6]; Dose 0.000001, Day 1
  Sum of % necrosis in Pea: C (less than 50% necrosis)
[6]; Dose 0.000001, Day 3
  Sum of % necrosis in Pea: A (over 80% necrosis)
[6]; Dose 0.000001, Day 7
  Sum of % necrosis in Pea: A (over 80% necrosis)
[6]; Dose 0.000001, Day 10
  Sum of % necrosis in Pea: A (over 80% necrosis)
[6]; Dose 0.000001, Day 14
  Sum of % necrosis in Pea: A (over 80% necrosis)
[6]; Dose 0.000005, Day 0
  Sum of % necrosis in Pea: C (less than 50% necrosis)
[6]; Dose 0.000005, Day 1
  Sum of % necrosis in Pea: C (less than 50% necrosis)
[6]; Dose 0.000005, Day 3
  Sum of % necrosis in Pea: B (50%-80% necrosis)
[6]; Dose 0.000005, Day 7
  Sum of % necrosis in Pea: A (over 80% necrosis)
[6]; Dose 0.000005, Day 10
  Sum of % necrosis in Pea: A (over 80% necrosis)
[6]; Dose 0.000005, Day 14
  Sum of % necrosis in Pea: A (over 80% necrosis)
[6]; Dose 0.00001, Day 0
  Sum of % necrosis in Pea: C (less than 50% necrosis)
[6]; Dose 0.00001, Day 1
  Sum of % necrosis in Pea: C (less than 50% necrosis)
[6]; Dose 0.00001, Day 3
  Sum of % necrosis in Pea: A (over 80% necrosis)
[6]; Dose 0.00001, Day 7
  Sum of % necrosis in Pea: A (over 80% necrosis)
[6]; Dose 0.00001, Day 10
  Sum of % necrosis in Pea: A (over 80% necrosis)
[6]; Dose 0.00001, Day 14
  Sum of % necrosis in Pea: A (over 80% necrosis)
[6]; Dose 0.00005, Day 0
  Sum of % necrosis in Pea: C (less than 50% necrosis)
[6]; Dose 0.00005, Day 1
  Sum of % necrosis in Pea: C (less than 50% necrosis)
[6]; Dose 0.00005, Day 3
  Sum of % necrosis in Pea: B (50%-80% necrosis)
[6]; Dose 0.00005, Day 7
  Sum of % necrosis in Pea: A (over 80% necrosis)
[6]; Dose 0.00005, Day 10
  Sum of % necrosis in Pea: A (over 80% necrosis)
[6]; Dose 0.00005, Day 14
  Sum of % necrosis in Pea: A (over 80% necrosis)
[6]; Dose 0.0001, Day 0
  Sum of % necrosis in Pea: C (less than 50% necrosis)
[6]; Dose 0.0001, Day 1
  Sum of % necrosis in Pea: C (less than 50% necrosis)
[6]; Dose 0.0001, Day 3
  Sum of % necrosis in Pea: A (over 80% necrosis)
[6]; Dose 0.0001, Day 7
  Sum of % necrosis in Pea: A (over 80% necrosis)
[6]; Dose 0.0001, Day 10
  Sum of % necrosis in Pea: A (over 80% necrosis)
[6]; Dose 0.0001, Day 14
  Sum of % necrosis in Pea: A (over 80% necrosis)
[6]; Dose 0.0005, Day 0
  Sum of % necrosis in Pea: C (less than 50% necrosis)
[6]; Dose 0.0005, Day 1
  Sum of % necrosis in Pea: C (less than 50% necrosis)
[6]; Dose 0.0005, Day 3
  Sum of % necrosis in Pea: C (less than 50% necrosis)
[6]; Dose 0.0005, Day 7
  Sum of % necrosis in Pea: A (over 80% necrosis)
[6]; Dose 0.0005, Day 10
  Sum of % necrosis in Pea: A (over 80% necrosis)
[6]; Dose 0.0005, Day 14
  Sum of % necrosis in Pea: A (over 80% necrosis)

Reference: patent US20150094474A1, “AGRICULTURAL CHEMICALS” (Redx Pharma Ltd., priority 2012, published 2015)
